Results on 18 molecules are retold here after PubChem BioAssay AID328 (DTP/NCI, 2004).

This assay has as its system BDF1 mice, P388 leukemia ip, median survival T/C. Put plainly: NCI In Vivo Anticancer Drug Screen. Data for tumor model P388 Leukemia (intraperitoneal) in B6D2F1 (BDF1) mice. The note with it: endpoint: median survival time, higher = longer survival. The procedure:
The antitumor activity of compounds was measured in mice bearing transplantable tumors. Survival or tumor size were measured and the results are expressed as the measurement made in the treated group (T) divided by the measurement made in the vehicle treated control group (C). The tumor model used in this assay is P388 Leukemia (intraperitoneal) in B6D2F1 (BDF1) mice

[1] abbreviates: dose: 100.0 mg/kg/injection, schedule: Q01DX009 (ip), vehicle: saline.
[2] abbreviates: dose: 100.0 mg/kg/injection, schedule: Q04DX003 (ip), vehicle: saline.
The mark [3] stands for this setting: dose: 200.0 mg/kg/injection, schedule: Q01DX009 (ip), vehicle: saline.
Setting [4] is: dose: 200.0 mg/kg/injection, schedule: Q04DX003 (ip), vehicle: saline.
[5] abbreviates: dose: 400.0 mg/kg/injection, schedule: Q01DX009 (ip), vehicle: saline.
[6] abbreviates: dose: 400.0 mg/kg/injection, schedule: Q04DX003 (ip), vehicle: saline.
Where [7] appears, read: dose: 12.5 mg/kg/injection, schedule: Q04DX003 (ip), vehicle: saline.
Setting [8] is: dose: 25.0 mg/kg/injection, schedule: Q04DX003 (ip), vehicle: saline.
[9] abbreviates: dose: 50.0 mg/kg/injection, schedule: Q01DX009 (ip), vehicle: saline.
[10] abbreviates: dose: 50.0 mg/kg/injection, schedule: Q01DX009 (ip), vehicle: saline with Tween-80.
Setting [11] is: dose: 100.0 mg/kg/injection, schedule: Q01DX009 (ip), vehicle: saline with Tween-80.
Setting [12] is: dose: 200.0 mg/kg/injection, schedule: Q01DX009 (ip), vehicle: saline with Tween-80.

“And” between values parts separate entries of the source, which are not always exact repeats. Identical values can stand only once. Inconclusive results and toxic doses are left out.

As for `Cc1cccc(CSc2nc(N)nc3ncn(C4CC(O)C(CO)O4)c23)n1` (stereo unspecified), the T/C was 103 % of control under setting [1]; 100 % of control under setting [2]; 97 % of control under setting [3]; 104 % of control under setting [4]; 103 % of control under setting [5]; 100 % of control under setting [6].

Turning to `CC(=O)Nc1ccn(C2OC(COC(C)=O)C(OC(C)=O)C2OC(C)=O)c(=O)n1` (stereo unspecified), the T/C (dose: 100.0 mg/kg/injection, schedule: Q04DX003 (ip), vehicle: saline with Tween-80) was 109 % of control; the T/C (dose: 177.0 mg/kg/injection, schedule: Q04DX003 (ip), vehicle: saline with Tween-80) was 104 % of control; the T/C (dose: 266.0 mg/kg/injection, schedule: Q04DX003 (ip), vehicle: saline with Tween-80) was 100 % of control and 116 % of control; the T/C (dose: 400.0 mg/kg/injection, schedule: Q04DX003 (ip), vehicle: saline with Tween-80) is 108 % of control and 118 % of control.

In the case of `Cc1c2cc3c(cc2cc2c4cc5c(cc4cc[n+]12)OCO5)OCO3` (tested in a mixture with another compound), the T/C reads like this: (dose: 3.0 mg/kg/injection, schedule: Q04DX003 (ip), vehicle: saline) 159 % of control; (dose: 3.13 mg/kg/injection, schedule: Q01DX009 (ip), vehicle: saline) 98 % of control; (dose: 5.56 mg/kg/injection, schedule: Q04DX003 (ip), vehicle: saline) 150 % of control and 177 % of control; (dose: 6.25 mg/kg/injection, schedule: Q01DX009 (ip), vehicle: saline) 89 % of control; (dose: 6.25 mg/kg/injection, schedule: Q04DX003 (ip), vehicle: saline) 170 % of control; (dose: 8.33 mg/kg/injection, schedule: Q04DX003 (ip), vehicle: saline) 172 % of control and 200 % of control. In addition, the T/C is, setting by setting: under setting [7], 150 % of control and 177 % of control and 190 % of control; (dose: 18.7 mg/kg/injection, schedule: Q04DX003 (ip), vehicle: saline) 113 % of control; under setting [8], 95 % of control.

On to `Cc1n[nH]c(=O)c2c3ccccc3nn12`, for which the T/C by setting is: (dose: 100.0 mg/kg/injection, schedule: Q04DX002 (ip), vehicle: saline with Tween-80) 103 % of control; (dose: 200.0 mg/kg/injection, schedule: Q04DX002 (ip), vehicle: saline with Tween-80) 110 % of control; (dose: 400.0 mg/kg/injection, schedule: Q04DX002 (ip), vehicle: saline with Tween-80) 107 % of control.

`CC(=O)/C(N=Nc1ccccc1)=C(\C)O`: the T/C was 100 % of control (dose: 25.0 mg/kg/injection, schedule: Q01DX009 (sc), vehicle: olive oil, sesame oil, peanut oil); 96 % of control (dose: 50.0 mg/kg/injection, schedule: Q01DX009 (sc), vehicle: olive oil, sesame oil, peanut oil); 112 % of control (dose: 100.0 mg/kg/injection, schedule: Q01DX009 (sc), vehicle: olive oil, sesame oil, peanut oil).

In the case of `NC(=O)CNCCS(=O)(=O)O`, the T/C was 91 % of control under setting [1]; 100 % of control under setting [2]; 87 % of control under setting [3]; 109 % of control under setting [4]; 104 % of control under setting [6].

`CCN(CC)CCCC(C)NCCCN` (stereo unspecified): the T/C reads like this: under setting [9], 96 % of control; under setting [1], 96 % of control; under setting [3], 94 % of control.

`CC1CCC2CON(C(C)(C)C)C2C1` (stereo unspecified): the T/C is 100 % of control under setting [10] and 100 % of control under setting [11].

Turning to `Cc1nc2ccccc2n1C[c-]1[c-][c-][c-][c-]1.[Fe].[c-]1[c-][c-][cH-][c-]1`, the T/C under setting [10] was 91 % of control, the T/C under setting [11] is 113 % of control and the T/C under setting [12] is 105 % of control.

For the molecule `CS(=O)(=O)c1ncc(Br)cn1`, the T/C is, setting by setting: (dose: 50.0 mg/kg/injection, schedule: Q01DX005 (ip), vehicle: saline with Tween-80) 103 % of control; under setting [9], 111 % of control; (dose: 100.0 mg/kg/injection, schedule: Q01DX005 (ip), vehicle: saline with Tween-80) 109 % of control; under setting [1], 124 % of control; (dose: 200.0 mg/kg/injection, schedule: Q01DX005 (ip), vehicle: saline with Tween-80) 117 % of control; under setting [3], 120 % of control. The T/C (dose: 400.0 mg/kg/injection, schedule: Q01DX005 (ip), vehicle: saline with Tween-80) was 120 % of control.

As for `O.O=C(O)O.O=C(O)O.O=C(O)O.[Zr]`, the T/C reads like this: under setting [1], 96 % of control; under setting [2], 100 % of control; under setting [3], 96 % of control; under setting [4], 100 % of control; under setting [5], 96 % of control; under setting [6], 95 % of control.

Turning to `S=c1[nH]c2ccccc2s1`, the T/C is, setting by setting: (dose: 50.0 mg/kg/injection, schedule: Q04DX003 (ip), vehicle: Klucel (hydroxypropylcellulose) (HPC)) 109 % of control; (dose: 100.0 mg/kg/injection, schedule: Q01DX001 (ip), vehicle: Klucel (hydroxypropylcellulose) (HPC)) 100 % of control; (dose: 100.0 mg/kg/injection, schedule: Q04DX003 (ip), vehicle: Klucel (hydroxypropylcellulose) (HPC)) 100 % of control; (dose: 200.0 mg/kg/injection, schedule: Q01DX001 (ip), vehicle: Klucel (hydroxypropylcellulose) (HPC)) 108 % of control; (dose: 200.0 mg/kg/injection, schedule: Q04DX003 (ip), vehicle: Klucel (hydroxypropylcellulose) (HPC)) 100 % of control and 123 % of control; (dose: 400.0 mg/kg/injection, schedule: Q01DX001 (ip), vehicle: Klucel (hydroxypropylcellulose) (HPC)) 100 % of control. Besides, the T/C (dose: 400.0 mg/kg/injection, schedule: Q04DX003 (ip), vehicle: Klucel (hydroxypropylcellulose) (HPC)) is 96 % of control.

As to `CC1=NN(c2ccccc2)C(=O)C1C(=S)SC1CC(=O)OC1=O` (stereo unspecified), the T/C under setting [10] is 100 % of control and the T/C under setting [11] was 112 % of control.

`CC(C)C(Br)C(N)=O` (stereo unspecified): the T/C is 104 % of control under setting [7]; 109 % of control under setting [8]; 109 % of control (dose: 50.0 mg/kg/injection, schedule: Q04DX003 (ip), vehicle: saline).

With `COC(=O)C1CN1C(c1ccccc1)(c1ccccc1)c1ccccc1` (stereo unspecified), the T/C was 95 % of control under setting [12] and 87 % of control (dose: 400.0 mg/kg/injection, schedule: Q01DX009 (ip), vehicle: saline with Tween-80).

For `CC(=O)OC1=CCC(C(C)(C)C)CC1` (stereo unspecified), the T/C (dose: 5.15 mg/kg/injection, schedule: Q04DX003 (ip), vehicle: saline) was 100 % of control; the T/C (dose: 6.25 mg/kg/injection, schedule: Q01DX009 (ip), vehicle: Klucel (hydroxypropylcellulose) (HPC)) is 100 % of control; the T/C (dose: 10.31 mg/kg/injection, schedule: Q04DX003 (ip), vehicle: saline) was 90 % of control; the T/C (dose: 12.5 mg/kg/injection, schedule: Q01DX009 (ip), vehicle: Klucel (hydroxypropylcellulose) (HPC)) was 100 % of control; the T/C (dose: 20.62 mg/kg/injection, schedule: Q04DX003 (ip), vehicle: saline) is 90 % of control; the T/C (dose: 25.0 mg/kg/injection, schedule: Q01DX009 (ip), vehicle: Klucel (hydroxypropylcellulose) (HPC)) is 100 % of control. Also, the T/C was 91 % of control and 100 % of control (dose: 35.0 mg/kg/injection, schedule: Q01DX009 (ip), vehicle: Klucel (hydroxypropylcellulose) (HPC)); 87 % of control (dose: 41.25 mg/kg/injection, schedule: Q04DX003 (ip), vehicle: Klucel (hydroxypropylcellulose) (HPC)); 100 % of control (dose: 55.0 mg/kg/injection, schedule: Q01DX009 (ip), vehicle: Klucel (hydroxypropylcellulose) (HPC)); 87 % of control (dose: 80.0 mg/kg/injection, schedule: Q01DX009 (ip), vehicle: Klucel (hydroxypropylcellulose) (HPC)).

On to `O=C(Nc1ccc(-c2cn3ccccc3n2)cc1)c1cc(Br)ccc1O`, for which the T/C is, setting by setting: (dose: 12.5 mg/kg/injection, schedule: Q01DX009 (ip), vehicle: saline with Tween-80) 100 % of control; (dose: 25.0 mg/kg/injection, schedule: Q01DX009 (ip), vehicle: saline with Tween-80) 91 % of control; under setting [10], 107 % of control.

For `Cc1cc(NC(=O)c2ccc(Cl)cc2)ccc1Cl`, the T/C is 100 % of control (dose: 100.0 mg/kg/injection, schedule: Q01DX001 (ip), vehicle: saline with Tween-80); 86 % of control (dose: 200.0 mg/kg/injection, schedule: Q01DX001 (ip), vehicle: saline with Tween-80); 95 % of control (dose: 400.0 mg/kg/injection, schedule: Q01DX001 (ip), vehicle: saline with Tween-80).
